Columns and labels:
[1] = tested on: patients with relapsing-remitting MS (RRMS); assay: Brain volume change (brain atrophy) by MRI using SIENA software in clinical study of daily oral fingolimod vs placebo; type: in vivo, human; settings: for Brain volume, Percent change from Month 12 to Month 24, Mean (SD) / Brain volume, Percent change from Month 12 to Month 24, Median / Brain volume, Percent change from baseline to Month 24, Mean (SD) / Brain volume, Percent change from baseline to Month 24, Median / Brain volume, Percent change from baseline to Month 12, Mean (SD) / Brain volume, Percent change from baseline to Month 12, Median / Brain volume, Percent change from baseline to Month 6, Mean (SD) / Brain volume, Percent change from baseline to Month 6, Median: RRMS patients
Description: Annualized relapse rate (ARR) over 24 months (primary endpoint) and time to disability progression (key secondary endpoint) is assessed in patients with relapsing-remitting MS (RRMS). Patients aged 18-55 years with an Expanded Disability Status Scale score 0-5.5, relapse in the previous year (or ≧2 in the previous 2 years) are randomized to daily oral fingolimod 1.25 mg or 0.5 mg, or placebo. […]

[2] = tested on: patients with relapsing-remitting MS (RRMS); assay: MRI lesion measures (Gd-enhancing, T2, T1 hypointense lesions) in clinical study of daily oral fingolimod vs placebo; type: in vivo, human; settings: for T1 hypointense lesion volume, months 0-24 - % change, Mean ± SD / T1 hypointense lesion volume, months 0-24 - % change, Median (range) / T2 lesion volume, months 0-24 - % change, Mean ± SD / T2 lesion volume, months 0-24 - % change, Median (range) / Patients free from new or enlarged T2 lesions, months 0-24 - (%) / Patients free from new or enlarged T2 lesions, months 0-24 - no.: RRMS patients
Description: Annualized relapse rate (ARR) over 24 months (primary endpoint) and time to disability progression (key secondary endpoint) is assessed in patients with relapsing-remitting MS (RRMS). Patients aged 18-55 years with an Expanded Disability Status Scale score 0-5.5, relapse in the previous year (or ≧2 in the previous 2 years) are randomized to daily oral fingolimod 1.25 mg or 0.5 mg, or placebo. […] The brain volume changes for months 0 to 12 is measured using SIENA software.

[3] = FTY720 0.5 mg daily oral, n 356
[4] = FTY720 0.5 mg daily oral, n 357
[5] = FTY720 0.5 mg daily oral, n 383
[6] = FTY720 0.5 mg daily oral, n 395
[7] = FTY720 1.25 mg daily oral, n 327
[8] = FTY720 1.25 mg daily oral, n 334
[9] = FTY720 1.25 mg daily oral, n 371
[10] = FTY720 1.25 mg daily oral, n 384
[11] = fingolimod-treated patients, baseline to month 24
[12] = fingolimod 0.5 mg daily oral, N = 346 with MRI data
[13] = fingolimod 0.5 mg daily oral, N = 368 with MRI data
[14] = fingolimod 0.5 mg daily oral, N = 425
[15] = fingolimod 1.25 mg daily oral, N = 317 with MRI data
[16] = fingolimod 1.25 mg daily oral, N = 343 with MRI data
[17] = fingolimod 1.25 mg daily oral, N = 429
[18] = both fingolimod groups (1.25 mg, 0.5 mg), at 6, 12 and 24 months

## CCCCCCCCc1ccc(CCC(N)(CO)CO)cc1.Cl [fingolimod, 2-amino-2-[2-(4-octylphenyl)ethyl]propane-1,3-diol]
[1]; [3]
  Brain volume, Percent change from Month 12 to Month 24, Mean (SD): −0.370 (0.8073) %
  Brain volume, Percent change from Month 12 to Month 24, Median: −0.340%
[1]; [4]
  Brain volume, Percent change from baseline to Month 24, Mean (SD): −0.843 (1.3120) %
  Brain volume, Percent change from baseline to Month 24, Median: −0.670%
[1]; [5]
  Brain volume, Percent change from baseline to Month 12, Mean (SD): −0.500 (1.0509) %
  Brain volume, Percent change from baseline to Month 12, Median: −0.380%
[1]; [6]
  Brain volume, Percent change from baseline to Month 6, Mean (SD): −0.224 (0.8131) %
  Brain volume, Percent change from baseline to Month 6, Median: −0.140%
[1]; [7]
  Brain volume, Percent change from Month 12 to Month 24, Mean (SD): −0.423 (0.8284) %
  Brain volume, Percent change from Month 12 to Month 24, Median: −0.380%
[1]; [8]
  Brain volume, Percent change from baseline to Month 24, Mean (SD): −0.885 (1.3857) %
  Brain volume, Percent change from baseline to Month 24, Median: −0.700%
[1]; [9]
  Brain volume, Percent change from baseline to Month 12, Mean (SD): −0.438 (1.0792) %
  Brain volume, Percent change from baseline to Month 12, Median: −0.300%
[1]; [10]
  Brain volume, Percent change from baseline to Month 6, Mean (SD): −0.209 (0.8649) %
  Brain volume, Percent change from baseline to Month 6, Median: −0.120%
[1]; [11]
  Reduction in atrophy rate versus placebo: 30%
  Reduction in brain volume versus placebo group: significantly less reduction in brain volume than those in the placebo group
[2]; [12]
  T1 hypointense lesion volume, months 0-24 - % change, Mean ± SD: 8.8 ± 76.27%
  T1 hypointense lesion volume, months 0-24 - % change, Median (range): 0.00 (−100.0-1037.1) %
[2]; [13]
  T2 lesion volume, months 0-24 - % change, Mean ± SD: 10.6 ± 103.46%
  T2 lesion volume, months 0-24 - % change, Median (range): −1.69 (−100.0-1828.5) %
[2]; [14]
  Patients free from new or enlarged T2 lesions, months 0-24 - (%): 50.5%
  Patients free from new or enlarged T2 lesions, months 0-24 - no.: 187
[2]; [15]
  T1 hypointense lesion volume, months 0-24 - % change, Mean ± SD: 12.2 ± 85.49%
  T1 hypointense lesion volume, months 0-24 - % change, Median (range): −0.20 (−100.0-888.4) %
[2]; [16]
  T2 lesion volume, months 0-24 - % change, Mean ± SD: 1.6 ± 30.71%
  T2 lesion volume, months 0-24 - % change, Median (range): −3.10 (−68.2-221.5) %
[2]; [17]
  Patients free from new or enlarged T2 lesions, months 0-24 - (%): 51.9%
  Patients free from new or enlarged T2 lesions, months 0-24 - no.: 175
[2]; both fingolimod doses, over 24 months
  Proportions of patients free from new or enlarged T2 lesions versus placebo: greater proportions of patients are free from these lesions
[2]; [18]
  Gd-enhancing lesions versus placebo group: significantly fewer Gd-enhancing lesions than those in the placebo group
  Patients free from Gd-enhancing lesions versus placebo: proportionately more patients are free from Gd-enhancing lesions
[2]; fingolimod 0.5 mg or 1.25 mg, over 24 months
  New or enlarged T2 lesions versus placebo: Fewer new or enlarged T2 lesions
[2]; fingolimod-treated patients, increases with placebo
  Volume of T2 lesions, change from baseline to month 24: decreases
